A short description of the series: Toxicity in Vero cells. Format: cell-based. The note with it: African green monkey. On the procedure:
The cells dislodged from the flask were generally in clumps and were dispersed by repeated forceful pipetting of the suspension against the surface of the flask. To 1 ml of the well-dispersed cell suspension, 0.2 ml of trypan blue solution was added, and the number of cells were counted using a hemacytomer. Each day for the next 3 days, two of the remaining flasks were harvested in the manner just described for determination of cell number. Only data on day three are presented. This method has previously been described by Schinazi, et al., “Effect of Combination of Acyclovir, and Vidarabine or its 5′-monophosphate on Herpes Simplex Viruses in Cell Culture and in Mice,” Antimicrob. Agents Chemother. 22, 499-507 (1982)). Median-Effect Method: EC50 and IC50 values were obtained by analysis of the data using the median-effect equation (Chou, T., et al., “Quantitative Analysis of Dose-Effect Relationships: The Combined Effects of Multiple Drugs or Enzyme Inhibitors,” Adv. Enz. Regul. 22, 27-55 (1984).

By IC50 is commonly meant the midpoint of a concentration-inhibition curve.

Molecules are shown by their SMILES.

Regarding `Nc1nc2c(ncn2COCCO)c(=O)[nH]1` [ACV, Acyclovir], the IC50 at 3 days is 1700 µM.

Source of the values: patent US6346529B1, “Antiviral therapy using thiazine dyes” (Oklahoma Medical Research Foundation, priority 1988, dated 2002).
